From patent US20230117034A1, “PYRAZOLOTRIAZINES” (Bayer Aktiengesellschaft, priority 2019, published 2023)

What was measured:
CDK12/CycK = CDK12/CycK (Homo sapiens, UniProt Q9NYV4); assay: CDK12/CycK high ATP kinase assay (TR-FRET, 2 mM ATP); assay type: biochemical; details: 2 mM ATP (high ATP); median; read-out: CDK12/CyclinK, 2 mM ATP (high ATP), IC50-[mol/l] (median)
Summary of the method: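 His-tagged human CDK12/CycK (~0.75 nM) pre-incubated 15 min with compound, then 60 min at 22 °C with 2 mM ATP and 1 µM biotinylated peptide (HEPES pH 7.5, 20 mM MgCl2). EDTA stop; phospho-Ser62 antibody/Eu anti-rabbit and streptavidin-XL665 TR-FRET, 665/620 nm ratio normalised to give IC50.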

CDK2/CycE = biological target: T1, CDK2/CycE (Homo sapiens, UniProt P24941); assay: CDK2/CycE kinase assay (TR-FRET, 2 mM ATP); assay type: biochemical; details: 2 mM ATP (high ATP); median; read-out: CDK2/CyclinE, 2 mM ATP (high ATP), IC50 (median)
T1 construct: purchased ProQinase GmbH (Freiburg, Germany); host or cells: insect cells (Sf9)
Summary of the method: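 GST-tagged human CDK2 and CycE from Sf9 cells, about 10 ng/ml, pre-incubated 15 min at 22 °C with compound in Tris/HCl pH 8.0 buffer. Reaction with 2 mM ATP and 0.75 µM biotinylated peptide for 25 min at 22 °C. Phospho-RB antibody TR-FRET (665/620 nm ratio) read after 1 h; data normalised to no-inhibitor and no-enzyme controls.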

Chain of CDK12/CycK (Q9NYV4 with tags, fused parts or gaps): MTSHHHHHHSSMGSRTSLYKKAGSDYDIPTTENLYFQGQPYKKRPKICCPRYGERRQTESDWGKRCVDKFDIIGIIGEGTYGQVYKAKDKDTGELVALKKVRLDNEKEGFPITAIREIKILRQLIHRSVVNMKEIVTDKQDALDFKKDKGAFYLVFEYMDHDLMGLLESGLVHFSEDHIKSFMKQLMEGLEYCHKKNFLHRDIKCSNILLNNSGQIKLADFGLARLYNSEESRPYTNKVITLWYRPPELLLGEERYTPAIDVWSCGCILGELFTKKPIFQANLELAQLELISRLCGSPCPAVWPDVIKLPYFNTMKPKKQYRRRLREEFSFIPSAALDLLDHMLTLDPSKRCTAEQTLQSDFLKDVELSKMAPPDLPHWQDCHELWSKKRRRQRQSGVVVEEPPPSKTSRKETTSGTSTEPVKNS
Chain of CDK12/CycK (O75909 1-300 partner limits assumed): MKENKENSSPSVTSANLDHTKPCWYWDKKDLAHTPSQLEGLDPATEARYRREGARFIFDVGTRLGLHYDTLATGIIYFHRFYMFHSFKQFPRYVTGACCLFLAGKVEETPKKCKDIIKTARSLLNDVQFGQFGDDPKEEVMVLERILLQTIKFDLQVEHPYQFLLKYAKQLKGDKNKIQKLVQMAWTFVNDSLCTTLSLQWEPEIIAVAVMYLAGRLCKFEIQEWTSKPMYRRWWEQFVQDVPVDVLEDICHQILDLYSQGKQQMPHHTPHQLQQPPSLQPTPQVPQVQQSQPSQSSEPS

Row | IC50 (CDK12/CycK) [µM] | IC50 (CDK2/CycE) [µM] | SMILES
1 | 4.82 | 4.66 | Brc1cnn2c(NCc3nc4ccccc4[nH]3)nc(N3CCOCC3C3CC3)nc12 (centres unmarked) [Example 117, N-(1H-benzimidazol-2-ylmethyl)-8-bromo-2-(3-cyclopropylmorpholin-4-yl)pyrazolo[1,5-a][1,3,5]triazin-4-amine]
2 | > 1.63 | > 20 | c1ccc2[nH]c(CNc3nc(N4CCOCC4)nc4c(-c5ccncc5)cnn34)nc2c1 [Example 111, N-[(1H-benzimidazol-2-yl)methyl]-2-(morpholin-4-yl)-8-(pyridin-4-yl)pyrazolo[1,5-a][1,3,5]triazin-4-amine hydrogen chloride (1/1)]
3 | 6.92 | 2.42 | Brc1cnn2c(NCc3nc4ccccc4[nH]3)nc(N3C[C@H]4C[C@@H]3CO4)nc12 [Example 102, N-[(1H-benzimidazol-2-yl)methyl]-8-bromo-2-[(1R,4R)-2-oxa-5-azabicyclo[2.2.1]heptan-5-yl]pyrazolo[1,5-a][1,3,5]triazin-4-amine]
4 | > 20 | > 20 | Brc1cnn2c(NCc3nc4ccccc4[nH]3)nc(N3CCN(C4CC4)CC3)nc12 [Example 138, N-[(1H-benzimidazol-2-yl)methyl]-8-bromo-2-(4-cyclopropylpiperazin-1-yl)pyrazolo[1,5-a][1,3,5]triazin-4-amine]
5 | 11.6 | 10.7 | CC(=O)NCCCc1cccc2[nH]c(CNc3nc(N4CCOCC4)nc4c(Br)cnn34)nc12.O=CO [Example 115, formic acid-N-{3-[2-({[8-bromo-2-(morpholin-4-yl)pyrazolo[1,5-a][1,3,5]triazin-4-yl]amino}methyl)-1H-benzimidazol-4-yl]propyl}acetamide (1/1)]
6 | 2.99 | 5.42 | Fc1cccc(-c2nnc(CNc3nc(N4CCNCC4)nc4c(Br)cnn34)[nH]2)c1 [Example 152, 8-bromo-N-{[5-(3-fluorophenyl)-4H-1,2,4-triazol-3-yl]methyl}-2-(piperazin-1-yl)pyrazolo[1,5-a][1,3,5]triazin-4-amine]
7 | > 20 | > 20 | CN1CCN(c2nc(NCc3nc4cc(F)ccc4[nH]3)n3ncc(C4CC4)c3n2)CC1 [Example 164, 8-cyclopropyl-N-[(5-fluoro-1H-benzimidazol-2-yl)methyl]-2-(4-methylpiperazin-1-yl)pyrazolo[1,5-a][1,3,5]triazin-4-amine]
8 | 11.1 | > 20 | CN1CCN(c2nc(NCc3nc4ccccc4[nH]3)n3ncc(Br)c3n2)CC1=O [Example 131, 4-(4-{[(1H-benzimidazol-2-yl)methyl]amino}-8-bromopyrazolo[1,5-a][1,3,5]triazin-2-yl)-1-methylpiperazin-2-one]
9 | 9.4 | 3.48 | CC1CN(C)CCN1c1nc(NCc2nc3ccccc3[nH]2)n2ncc(Br)c2n1 (centres unmarked) [Example 156, N-(1H-benzimidazol-2-ylmethyl)-8-bromo-2-(2,4-dimethylpiperazin-1-yl)pyrazolo[1,5-a][1,3,5]triazin-4-amine]
10 | 1.71 | 1.2 | NCCc1ccc2[nH]c(CNc3nc(N4CCOCC4)nc4c(Br)cnn34)nc2c1.O=CO [Example 113, formic acid-N-{[5-(2-aminoethyl)-1H-benzimidazol-2-yl]methyl}-8-bromo-2-(morpholin-4-yl)pyrazolo[1,5-a][1,3,5]triazin-4-amine (1/1)]
11 | > 18.2 | > 20 | C[C@@H]1CN(c2nc(NCc3nc4ccccc4[nH]3)n3ncc(Br)c3n2)C[C@H](C)N1C [Example 129, N-(1H-benzimidazol-2-ylmethyl)-8-bromo-2-[(3R,5S)-3,4,5-trimethylpiperazin-1-yl]pyrazolo[1,5-a][1,3,5]triazin-4-amine]
12 | > 20 | 17.8 | Brc1cnn2c(NCc3nc4ccccc4[nH]3)nc(N3CCC3)nc12 [Example 143, 2-(azetidin-1-yl)-N-[(1H-benzimidazol-2-yl)methyl]-8-bromopyrazolo[1,5-a][1,3,5]triazin-4-amine]
13 | 8.44 | 8.15 | C[C@@H]1CN(c2nc(NCc3nnc(-c4ccccc4)[nH]3)n3ncc(Br)c3n2)CCN1C.O=CO [Example 130, 8-bromo-2-[(3R)-3,4-dimethylpiperazin-1-yl]-N-[(5-phenyl-4H-1,2,4-triazol-3-yl)methyl]pyrazolo[1,5-a][1,3,5]triazin-4-amine formate]
14 | 2.25 | 3.88 | Fc1ccc2[nH]c(CNc3nc(N4CCOCC4)nc4c(Br)cnn34)nc2c1 [Example 101, 8-bromo-N-[(5-fluoro-1H-benzimidazol-2-yl)methyl]-2-(morpholin-4-yl)pyrazolo[1,5-a][1,3,5]triazin-4-amine]
15 | 15.3 | 14.7 | FC(F)(F)CN1CCN(c2nc(NCc3nc4ccccc4[nH]3)n3ncc(Br)c3n2)CC1 [Example 139, N-[(1H-benzimidazol-2-yl)methyl]-8-bromo-2-[4-(2,2,2-trifluoroethyl)piperazin-1-yl]pyrazolo[1,5-a][1,3,5]triazin-4-amine]

More lines, now with the values behind:

Row | SMILES | IC50 (CDK12/CycK) [µM] | IC50 (CDK2/CycE) [µM]
16 | C[C@@H]1CN(c2nc(NCc3nnc(-c4ccccc4)[nH]3)n3ncc(Br)c3n2)C[C@H](C)N1 [Example 127, 8-bromo-2-[(3R,5S)-3,5-dimethylpiperazin-1-yl]-N-[(5-phenyl-4H-1,2,4-triazol-3-yl)methyl]pyrazolo[1,5-a][1,3,5]triazin-4-amine] | 9.71 | > 20
17 | Cc1ccc2[nH]c(CNc3nc(N4CCOCC4)nc4c(Br)cnn34)nc2c1 [Example 157, 8-bromo-N-[(5-methyl-1H-benzimidazol-2-yl)methyl]-2-(morpholin-4-yl)pyrazolo[1,5-a][1,3,5]triazin-4-amine] | 0.676 | 3.02
18 | C[C@H]1CN(c2nc(NCc3nc4ccccc4[nH]3)n3ncc(Br)c3n2)CCN1C [Example 132, N-[(1H-benzimidazol-2-yl)methyl]-8-bromo-2-[(3S)-3,4-dimethylpiperazin-1-yl]pyrazolo[1,5-a][1,3,5]triazin-4-amine] | > 19.2 | 7.43
19 | c1ccc(-c2cnn3c(NCc4nc5ccccc5[nH]4)nc(N4CCOCC4)nc23)cc1 [Example 104, N-[(1H-benzimidazol-2-yl)methyl]-2-(morpholin-4-yl)-8-phenylpyrazolo[1,5-a][1,3,5]triazin-4-amine] | > 20 | > 20
20 | CN1CCN(c2nc(NCc3nc4c(F)c(F)ccc4[nH]3)n3ncc(C4CC4)c3n2)CC1 [Example 159, 8-cyclopropyl-N-[(4,5-difluoro-1H-benzimidazol-2-yl)methyl]-2-(4-methylpiperazin-1-yl)pyrazolo[1,5-a][1,3,5]triazin-4-amine] | 9.62 | > 20
21 | NCCCc1cccc2[nH]c(CNc3nc(N4CCOCC4)nc4c(Br)cnn34)nc12.O=CO [Example 114, formic acid-N-{[4-(3-aminopropyl)-1H-benzimidazol-2-yl]methyl}-8-bromo-2-(morpholin-4-yl)pyrazolo[1,5-a][1,3,5]triazin-4-amine (1/1)] | 8.13 | 5.44
22 | COc1ccc2[nH]c(CNc3nc(N4CCOCC4)nc4c(Br)cnn34)nc2c1 [Example 160, 8-bromo-N-[(5-methoxy-1H-benzimidazol-2-yl)methyl]-2-(morpholin-4-yl)pyrazolo[1,5-a][1,3,5]triazin-4-amine] | 1.24 | 5.17
23 | C[C@@H]1CN(c2nc(NCc3nc4ccccc4[nH]3)n3ncc(Br)c3n2)CCN1C [Example 135, N-[(1H-benzimidazol-2-yl)methyl]-8-bromo-2-[(3R)-3,4-dimethylpiperazin-1-yl]pyrazolo[1,5-a][1,3,5]triazin-4-amine] | 14.5 | 7.75
24 | c1cncc(-c2cnn3c(NCc4nc5ccccc5[nH]4)nc(N4CCOCC4)nc23)c1 [Example 108, N-[(1H-benzimidazol-2-yl)methyl]-2-(morpholin-4-yl)-8-(pyridin-3-yl)pyrazolo[1,5-a][1,3,5]triazin-4-amine] | > 20 | > 20
25 | CCC1COCCN1c1nc(NCc2nc3ccccc3[nH]2)n2ncc(Br)c2n1 (centres unmarked) [Example 116, N-(1H-benzimidazol-2-ylmethyl)-8-bromo-2-(3-ethylmorpholin-4-yl)pyrazolo[1,5-a][1,3,5]triazin-4-amine] | 6.73 | 3.01
26 | CC(C)c1cnn2c(NCc3nc4ccccc4[nH]3)nc(NCC(C)(C)O)nc12 [Example 10, 1-{[4-{[(1H-benzimidazol-2-yl)methyl]amino}-8-(propan-2-yl)pyrazolo[1,5-a][1,3,5]triazin-2-yl]amino}-2-methylpropan-2-ol] | 8.75 | 0.874
27 | CC1(C)CN(c2nc(NCc3nnc(-c4ccccc4)[nH]3)n3ncc(C4CC4)c3n2)CCO1 [Example 94, 8-cyclopropyl-2-(2,2-dimethylmorpholin-4-yl)-N-[(5-phenyl-4H-1,2,4-triazol-3-yl)methyl]pyrazolo[1,5-a][1,3,5]triazin-4-amine] | 8.79 | > 20
28 | Fc1ccc(-c2cnn3c(NCc4nc5ccccc5[nH]4)nc(N4CCOCC4)nc23)cc1 [Example 106, N-[(1H-benzimidazol-2-yl)methyl]-8-(4-fluorophenyl)-2-(morpholin-4-yl)pyrazolo[1,5-a][1,3,5]triazin-4-amine] | > 9.99 | > 20
